We go through two compounds from patent US20070082893A1, “Active substance combination” (LABORATORIOS DEL DR. ESTEVE S.A, priority 2004, published 2007).

For one data set, the system named is male Swiss albino mice. Here is the method: Pharmacodyn. 1971, 190, pages 213-218 in male Swiss albino mice (weight 20-25 g, Harlan Iberica, S. Feliu de Codinas, Barcelona, Spain).
Opioid dependency is developed in the mice by intraperitoneal administration of the opioid in a suitable dose known to those skilled in the art, e.g. 5 mg/kg/day for 4 consecutive days for morphine. Withdrawal symptoms are then induced by the intravenous administration of a suitable opioid antagonist in a dose known to those skilled in the art, for example, 2 mg/kg naloxone in case of morphine, 30 minutes after the administration of the final dose of the opioid is completed.
In the 30 minute period following the naloxone administration the mice show typical withdrawal symptoms, namely jumps and shakes (of the wet dog shake type), which are counted and registered.
The active substance combination is also administered to the mice for 4 consecutive days. After the administration of 2 mg/kg naloxone 30 minutes after the administration of the final dose of the active substance combination has been completed, the mice are closely watched for withdrawal symptoms, namely jumps and shakes (of the wet dog shake type), which are then counted and registered.
The influence of the active substance combination on withdrawal symptoms has been determined as described above.

Another data set relates to male Swiss mice. Put plainly: Hot plate test in mice. The format is in vivo. The conditions noted are these: hot plate 55° C., Cizolirtine (as Citrate salt) 20 mg/kg i.p., Morphine 5 mg/kg s.c., combination 20 + 5 mg/kg; for % Analgesic activity 0.5 hours: 0.5 hours after administration; for % Analgesic activity 1 hour: 1 hour after administration; for % Analgesic activity 2 hours: 2 hours after administration. Here is the method: The analgesic activity of the inventive active substance combination is determined in male Swiss mice (weight 20-25 g, Harlan Iberica, S. Feliu de Codinas, Barcelona, Spain) as described in the publication of G. Woolfe and A. D. MacDonald, J. Pharm. Exp. Ther. 1944, 80, pages 300-307. The respective description of this publication is incorporated by reference and forms part of the present disclosure.
According to this test the mice are put onto a plate, which is heated to 55° C. and the time is determined until the mice show signs of pain such as vigorous and repeated licking of the paws, jumping or pulling back the paws. The mice are kept on the hot plate for no longer than 40 seconds in order to avoid the development of cutaneous lesions. At first the untreated mice are subjected to the hot-plate test to determine a baseline for their pain induced behaviour. After 10 minutes the vehicle, the active substances and the inventive active substance combination to be tested are administered to different groups of mice. 0.5 hours, 1 hour and 2 hours after the administration the animals are put onto the hot plate and the time is measured until they show signs of pain. The analgesic efficacy of the active substances or active substance combination is calculated on the basis of the values obtained for the comparison group of mice which is only administered the vehicle.
In general terms: Hot-plate and tail-flick tests time the reaction to a heat stimulus.

[1] abbreviates: 30 minute period after 2 mg/kg naloxone, Morphine 5 mg/kg/day s.c. over 4 days, alone or with Cizolirtine citrate 40 mg/kg/day i.p.

Regarding `CN(C)CCOC(c1ccccc1)c1ccnn1C.O=C(O)CC(O)(CC(=O)O)C(=O)O` (racemic) [Cizolirtine, (±)-5-[α-[2-(Dimethylamino)ethoxy]benzyl]-1-methyl-1H-pyrazole citrate], the “withdrawal symptoms associated with morphine on co-administration (in words)” value in the data set on male Swiss albino mice (table B, co-administered with morphine, opioid amount not reduced) is on record as “significantly reduced”. Further, in the data set with male Swiss mice, the “% Analgesic activity 0.5 hours” value is given as 25.8%, the “% Analgesic activity 1 hour” value stood at 17.1% and the “% Analgesic activity 2 hours” value came out at 23.4%.

`CN1CC[C@]23c4c5ccc(O)c4O[C@H]2[C@@H](O)C=C[C@H]3[C@H]1C5` [Morphine]: in the data set with male Swiss albino mice (setting [1]), the Number of jumps amounted to 6.6 and the Number of shakes is 16.3. Also, in the data set with male Swiss mice, the “% Analgesic activity 0.5 hours” value was 48.6%, the “% Analgesic activity 1 hour” value was determined as 34.8% and the “% Analgesic activity 2 hours” value is 15.8%.
